pEC50: −log10 of the molar value. Starred links: 1 amine or outer side, 2 acyl side, 3 side chain; linkers in the order of their positions; H or OH if unused. Non-standard residues stand in square brackets, D forms with d. Residues, ends and D or L forms follow the SMILES beside them. Groups on a side chain read outwards from the residue. *: point of attachment. X3 = O=C(O)CCCCCCCCCCCCCCCCCCC(=O)NC[C@H]1CC[C@H](C(=O)N[C@@H](CCC(=O)NCCOCCOCC(=O)NCCOCCOCC(=O)N[C@@H](CCCCN*)C(=O)O)C(=O)O)CC1; X1 = O=C(CCCCCCCCCCCCCCCc1nnn[nH]1)NS(=O)(=O)CCCC(=O)*; C20 diacid = O=C(O)CCCCCCCCCCCCCCCCCCC(=O)*; γGlu = O=C(O)[C@H](CCC(=O)[*:2])N[*:1]; Desaminohistidyl = O=C(CCc1c[nH]cn1)*; AEEA = NCCOCCOCC(=O)O; Aib = CC(C)(N)C(=O)O; Inp = O=C(O)C1CCNCC1; GABA = NCCCC(=O)O
Target: human serum albumin (HSA) (Homo sapiens, UniProt P02768)
Test: Albumin binding affinity, competition scintillation proximity assay
Conditions: for EC50 at 20 h: human, biotinylated human serum albumin on streptavidin-SPA beads, pH 7.4
Experimental: Streptavidin-SPA beads (GE Healthcare RPNQ0009) were incubated with biotinylated HSA for 5 hours. The beads were washed with buffer to remove unbound HSA. […] After 20 hours of gentle rocking at room temperature the plates were centrifuged and counted on a TopCounter.

human serum albumin (HSA), sequence (P02768 25-609): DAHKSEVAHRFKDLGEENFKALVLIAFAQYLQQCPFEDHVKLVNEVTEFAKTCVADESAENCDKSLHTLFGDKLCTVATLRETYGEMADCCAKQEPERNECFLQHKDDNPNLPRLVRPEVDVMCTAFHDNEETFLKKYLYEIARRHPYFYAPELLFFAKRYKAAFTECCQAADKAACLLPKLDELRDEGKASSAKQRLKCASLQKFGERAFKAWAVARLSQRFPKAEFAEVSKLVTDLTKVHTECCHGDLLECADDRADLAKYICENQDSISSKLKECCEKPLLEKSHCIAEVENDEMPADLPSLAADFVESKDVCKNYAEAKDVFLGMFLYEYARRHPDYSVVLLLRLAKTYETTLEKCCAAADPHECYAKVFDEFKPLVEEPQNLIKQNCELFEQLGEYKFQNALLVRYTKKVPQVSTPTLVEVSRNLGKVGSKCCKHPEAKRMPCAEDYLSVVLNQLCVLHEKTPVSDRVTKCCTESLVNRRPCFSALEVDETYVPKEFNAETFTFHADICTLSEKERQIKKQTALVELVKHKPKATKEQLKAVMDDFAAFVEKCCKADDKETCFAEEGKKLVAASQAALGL

pEC50	EC50 at 20 h	SMILES
5.70 to 6.10		CC[C@H](C)[C@H](NC(=O)[C@H](Cc1ccccc1)NC(=O)[C@H](CCC(=O)O)NC(=O)[C@H](CCCNC(=N)N)NC(=O)[C@H](C)NC(=O)[C@H](C)NC(=O)[C@H](CCC(N)=O)NC(=O)[C@H](CCC(=O)O)NC(=O)[C@H](CCC(=O)O)NC(=O)[C@H](CC(C)C)NC(=O)[C@H](Cc1ccc(O)cc1)NC(=O)[C@H](CO)NC(=O)[C@H](CO)NC(=O)[C@@H](NC(=O)[C@H](CC(=O)O)NC(=O)[C@H](CO)NC(=O)[C@@H](NC(=O)[C@H](Cc1ccccc1)NC(=O)[C@@H](NC(=O)CNC(=O)[C@H](CCC(=O)O)NC(=O)[C@H](C)NC(=O)CCc1c[nH]cn1)[C@@H](C)O)[C@@H](C)O)C(C)C)C(=O)N[C@@H](C)C(=O)N[C@@H](Cc1c[nH]c2ccccc12)C(=O)N[C@@H](CC(C)C)C(=O)N[C@H](C(=O)N[C@@H](CCCNC(=N)N)C(=O)NCC(=O)N[C@@H](CCCNC(=N)N)C(=O)N[C@@H](CCCCNC(=O)COCCOCCNC(=O)COCCOCCNC(=O)CC[C@H](NC(=O)[C@H]1CC[C@H](CNC(=O)CCCCCCCCCCCCCCCCCCC(=O)O)CC1)C(=O)O)C(N)=O)C(C)C [Example 24, N-epsilon37-[2-(2-{2-[2-(2-{2-[(S)-4-Carboxy-4-({trans-4-[(19-carboxy-nonadecanoylamino)methyl]cyclohexanecarbonyl}amino)butyrylamino]ethoxy}ethoxy)acetylamino]ethoxy}ethoxy)acetyl][DesaminoHis7,Glu22,Arg26,Arg34,Lys37]GLP-1-(7-37)amide]
6.10 to 6.52		CC[C@H](C)[C@H](NC(=O)[C@H](Cc1ccccc1)NC(=O)[C@H](CCC(=O)O)NC(=O)[C@H](CCCNC(=N)N)NC(=O)[C@H](C)NC(=O)[C@H](C)NC(=O)[C@H](CCC(N)=O)NC(=O)[C@H](CCC(=O)O)NC(=O)[C@H](CCC(=O)O)NC(=O)[C@H](CC(C)C)NC(=O)[C@H](Cc1ccc(O)cc1)NC(=O)[C@H](CO)NC(=O)[C@H](CO)NC(=O)[C@@H](NC(=O)[C@H](CC(=O)O)NC(=O)[C@H](CO)NC(=O)[C@@H](NC(=O)[C@H](Cc1ccccc1)NC(=O)[C@@H](NC(=O)CNC(=O)[C@H](CCC(=O)O)NC(=O)[C@H](C)NC(=O)CCc1c[nH]cn1)[C@@H](C)O)[C@@H](C)O)C(C)C)C(=O)N[C@@H](C)C(=O)N[C@@H](Cc1c[nH]c2ccccc12)C(=O)N[C@@H](CC(C)C)C(=O)N[C@H](C(=O)N[C@@H](CCCNC(=N)N)C(=O)NCC(=O)N[C@@H](CCCNC(=N)N)C(=O)NCC(=O)N[C@@H](CCCCNC(=O)COCCOCCNC(=O)COCCOCCNC(=O)CC[C@H](NC(=O)C1CCN(C(=O)CCCCCCCCCCCCCCCCCCC(=O)O)CC1)C(=O)O)C(N)=O)C(C)C [Example 14, [DesaminoHis7,Glu22,Arg26,Arg34]GLP-1-(7-37)Lys[2-(2-[2-(2-[2-(2-((S)-4-[1-[19-Carboxynonadecanoyl]piperidine-4-carbonylamino]-4-carboxybutyrylamino)ethoxy)ethoxy]acetylamino)ethoxy]ethoxy)acetyl]amide] (Desaminohistidyl-AEGTFTSDVSSYLEEQAAREFIAWLVRGRGK([AEEA-AEEA-γGlu-Inp-C20 diacid])-NH2)
	150 to 300 nM	CC[C@H](C)[C@H](NC(=O)[C@H](Cc1ccccc1)NC(=O)[C@H](CCC(=O)O)NC(=O)[C@H](CCCNC(=N)N)NC(=O)[C@H](C)NC(=O)[C@H](C)NC(=O)[C@H](CCC(N)=O)NC(=O)[C@H](CCC(=O)O)NC(=O)[C@H](CCC(=O)O)NC(=O)[C@H](CC(C)C)NC(=O)[C@H](Cc1ccc(O)cc1)NC(=O)[C@H](CO)NC(=O)[C@H](CO)NC(=O)[C@@H](NC(=O)[C@H](CC(=O)O)NC(=O)[C@H](CO)NC(=O)[C@@H](NC(=O)[C@H](Cc1ccccc1)NC(=O)[C@@H](NC(=O)CNC(=O)[C@H](CCC(=O)O)NC(=O)C(C)(C)NC(=O)[C@@H](N)Cc1c[nH]cn1)[C@@H](C)O)[C@@H](C)O)C(C)C)C(=O)N[C@@H](CCC(=O)O)C(=O)N[C@@H](Cc1c[nH]c2ccccc12)C(=O)N[C@@H](CC(C)C)C(=O)N[C@H](C(=O)N[C@@H](CCCCN)C(=O)NCC(=O)N[C@@H](CCCNC(=N)N)C(=O)N1CCC[C@H]1C(=O)N[C@@H](CCCCNC(=O)COCCOCCNC(=O)CC[C@H](NC(=O)CC[C@H](NC(=O)CCCNC(=O)CCCS(=O)(=O)NC(=O)CCCCCCCCCCCCCCCc1nnn[nH]1)C(=O)O)C(=O)O)C(=O)O)C(C)C [Example 51, [Aib8,Glu22,Arg26,Glu30,Pro37]GLP-1-(7-37)Lys [2-(2-{2-[4-Carboxy-4-(4-carboxy-4-{4-[4-(16-1H-tetrazol-5-yl-hexadecanoylsulfamoyl)butyrylamino]butyrylamino}butyrylamino)butyrylamino]ethoxy}ethoxy)acetyl]] (H-H[Aib]EGTFTSDVSSYLEEQAAREFIEWLVKGRPK([AEEA-γGlu-γGlu-GABA-X1])-OH)
7.00 to 9.00		CC[C@H](C)[C@H](NC(=O)[C@H](Cc1ccccc1)NC(=O)[C@H](CCC(=O)O)NC(=O)[C@H](CCCNC(=N)N)NC(=O)[C@H](C)NC(=O)[C@H](C)NC(=O)[C@H](CCC(N)=O)NC(=O)[C@H](CCC(=O)O)NC(=O)[C@H](CCC(=O)O)NC(=O)[C@H](CC(C)C)NC(=O)[C@H](Cc1ccc(O)cc1)NC(=O)[C@H](CO)NC(=O)[C@H](CO)NC(=O)[C@@H](NC(=O)[C@H](CC(=O)O)NC(=O)[C@H](CO)NC(=O)[C@@H](NC(=O)[C@H](Cc1ccccc1)NC(=O)[C@@H](NC(=O)CNC(=O)[C@H](CCC(=O)O)NC(=O)[C@H](C)NC(=O)CCc1c[nH]cn1)[C@@H](C)O)[C@@H](C)O)C(C)C)C(=O)N[C@@H](C)C(=O)N[C@@H](Cc1c[nH]c2ccccc12)C(=O)N[C@@H](CC(C)C)C(=O)N[C@H](C(=O)N[C@@H](CCCNC(=N)N)C(=O)NCC(=O)N[C@@H](CCCNC(=N)N)C(=O)NCCCC[C@H](NC(=O)COCCOCCNC(=O)COCCOCCNC(=O)CC[C@H](NC(=O)[C@H]1CC[C@H](CNC(=O)CCCCCCCCCCCCCCCCCCC(=O)O)CC1)C(=O)O)C(=O)O)C(C)C [Example 53, N-alpha37-[2-(2-{2-[2-(2-{2-[(S)-4-Carboxy-4-({trans-4-[(19-carboxynonadecanoylamino)methyl]cyclohexanecarbonyl}amino)butyrylamino]ethoxy}ethoxy)acetylamino]ethoxy}ethoxy)acetyl][DesaminoHis7,Glu22,Arg26,Arg34,epsilon-Lys37]GLP-1-(7-37)] (Desaminohistidyl-AEGTFTSDVSSYLEEQAAREFIAWLVRGR-X3)
	1 to 100 nM	CC[C@H](C)[C@H](NC(=O)[C@H](Cc1ccccc1)NC(=O)[C@H](CCC(=O)O)NC(=O)[C@H](CCCCNC(=O)COCCOCCNC(=O)CC[C@H](NC(=O)CC[C@H](NC(=O)CCCCCNC(=O)CCCS(=O)(=O)NC(=O)CCCCCCCCCCCCCCCc1nnn[nH]1)C(=O)O)C(=O)O)NC(=O)[C@H](C)NC(=O)[C@H](C)NC(=O)[C@H](CCC(N)=O)NC(=O)CNC(=O)[C@H](CCC(=O)O)NC(=O)[C@H](CC(C)C)NC(=O)[C@H](Cc1ccc(O)cc1)NC(=O)[C@H](CO)NC(=O)[C@H](CO)NC(=O)[C@@H](NC(=O)[C@H](CC(=O)O)NC(=O)[C@H](CO)NC(=O)[C@@H](NC(=O)[C@H](Cc1ccccc1)NC(=O)[C@@H](NC(=O)CNC(=O)[C@H](CCC(=O)O)NC(=O)C(C)(C)NC(=O)[C@@H](N)Cc1c[nH]cn1)[C@@H](C)O)[C@@H](C)O)C(C)C)C(=O)N[C@@H](C)C(=O)N[C@@H](Cc1c[nH]c2ccccc12)C(=O)N[C@@H](CC(C)C)C(=O)N[C@H](C(=O)N[C@@H](CCCNC(=N)N)C(=O)O)C(C)C [Example 38, N-epsilon26-[2-(2-{2-[(S)-4-Carboxy-4-((S)-4-carboxy-4-{6-[4-(16-(1H-tetrazol-5-yl)hexadecanoylsulfamoyl)butyrylamino]hexanoylamino}butyrylamino)butyrylamino]ethoxy}ethoxy)acetyl][Aib8,Arg34]GLP-1-(7-34)]
	800 to 2000 nM	CC[C@H](C)[C@H](NC(=O)[C@H](Cc1ccccc1)NC(=O)[C@H](CCC(=O)O)NC(=O)[C@H](CCCNC(=N)N)NC(=O)[C@H](C)NC(=O)[C@H](C)NC(=O)[C@H](CCC(N)=O)NC(=O)C(C)(C)NC(=O)[C@H](CCC(=O)O)NC(=O)[C@H](CC(C)C)NC(=O)[C@H](Cc1ccc(O)cc1)NC(=O)[C@H](CCCCNC(=O)COCCOCCNC(=O)COCCOCCNC(=O)CC[C@H](NC(=O)C1CCN(C(=O)CCCCCCCCCCCCCCCCCCC(=O)O)CC1)C(=O)O)NC(=O)[C@H](CO)NC(=O)[C@@H](NC(=O)[C@H](CC(=O)O)NC(=O)[C@H](CO)NC(=O)[C@@H](NC(=O)[C@H](Cc1ccccc1)NC(=O)[C@@H](NC(=O)CNC(=O)[C@H](CCC(=O)O)NC(=O)C(C)(C)NC(=O)[C@@H](N)Cc1c[nH]cn1)[C@@H](C)O)[C@@H](C)O)C(C)C)C(=O)N[C@@H](C)C(=O)N[C@@H](Cc1c[nH]c2ccccc12)C(=O)N[C@@H](CC(C)C)C(=O)N[C@H](C(=O)N[C@@H](CCCNC(=N)N)C(=O)NC(C)(C)C(=O)N[C@@H](CCCNC(=N)N)C(=O)NCC(=O)O)C(C)C [Example 70] (H-H[Aib]EGTFTSDVSK([AEEA-AEEA-γGlu-Inp-C20 diacid])YLE[Aib]QAAREFIAWLVR[Aib]RG-OH)
	150 to 300 nM	CC[C@H](C)[C@H](NC(=O)[C@H](Cc1ccccc1)NC(=O)[C@H](CCC(=O)O)NC(=O)[C@H](CCCNC(=N)N)NC(=O)[C@H](C)NC(=O)[C@H](C)NC(=O)[C@H](CCC(N)=O)NC(=O)[C@H](CCC(=O)O)NC(=O)[C@H](CCC(=O)O)NC(=O)[C@H](CC(C)C)NC(=O)[C@H](Cc1ccc(O)cc1)NC(=O)[C@H](CO)NC(=O)[C@H](CO)NC(=O)[C@@H](NC(=O)[C@H](CC(=O)O)NC(=O)[C@H](CO)NC(=O)[C@@H](NC(=O)[C@H](Cc1ccccc1)NC(=O)[C@@H](NC(=O)CNC(=O)[C@H](CCC(=O)O)NC(=O)[C@H](C)NC(=O)CCc1c[nH]cn1)[C@@H](C)O)[C@@H](C)O)C(C)C)C(=O)N[C@@H](C)C(=O)N[C@@H](Cc1c[nH]c2ccccc12)C(=O)N[C@@H](CC(C)C)C(=O)N[C@H](C(=O)N[C@@H](CCCNC(=N)N)C(=O)NCC(=O)N[C@@H](CCCNC(=N)N)C(=O)NCC(=O)N[C@@H](CCCCNC(=O)COCCOCCNC(=O)CC[C@H](NC(=O)C1CCN(C(=O)CCCCCCCCCCCCCCCCCCC(=O)O)CC1)C(=O)O)C(=O)O)C(C)C [Example 55, [DesaminoHis7,Glu22,Arg26,34]-GLP-1 (7-37)-Lys-(2-{2-[2-((S)-4-carboxy-4-{[1-(19-carboxynonadecanoyl)piperidine-4-carbonyl]amino}butyrylamino)ethoxy]ethoxy}acetyl) peptide] (Desaminohistidyl-AEGTFTSDVSSYLEEQAAREFIAWLVRGRGK([AEEA-γGlu-Inp-C20 diacid])-OH)

Reference: patent US9067977B2, “Peptides derivatized with A-B-C-D- and their therapeutical use” (Novo Nordisk A/S, priority 2007, dated 2015)
